Measurements as given in patent publication US20240216410A1, “METHODS AND COMPOSITIONS FOR TREATING CANCER THERAPY-INDUCED NEUTROPENIC FEVER AND/OR GVHD” (BOARD OF REGENTS, THE UNIVERSITY OF TEXAS SYSTEM, priority 2021, published 2024).

How the values were obtained:
[1] = human, in vivo
Method: In this study, data from 295 patients with acute myeloid leukemia (AML) or myelodysplastic syndrome (MDS) who underwent allo-HSCT with tacrolimus and methotrexate as GVHD prophylaxis following conditioning therapy with fludarabine and 5 busulfan from 2011 to 2016 were retrospectively examined. The incidence of acute intestinal GVHD until day 100 after transplant was evaluated and compared were patients who received neither cefepime nor meropenem, those who received cefepime alone, those who received meropenem alone, and those who received both cefepime and meropenem during the period from days −10 to 30 relative to allo-HSCT infusion.
Retrospective study design. 295 patients with acute myeloid leukemia (AML) or myelodysplastic syndrome (MDS) underwent allogeneic hematopoietic stem cell transplantation (allo-HSCT) with fludarabine plus busulfan as conditioning therapy and tacrolimus and methotrexate as GVHD prophylaxis from 2011 and 2016 and were analyzed retrospectively. Patients were classified by antibiotic exposures, including those who received neither cefepime nor meropenem, those who received cefepime alone, those who received meropenem alone and those who received both cefepime and meropenem from day −10 to day 30 after allo-HSCT. Acute GVHD was diagnosed by clinical and/or pathological findings, and graded according to standard criteria (56).

[2] = Murine GVHD model: colonic luminal carbohydrates by acid hydrolysis and IC-MS; format: in vivo; conditions: day 18; mice with GVHD
Excerpt: BT is known to be a versatile utilizer of a variety of carbohydrate sources derived from the diet, including xylose via the xylose isomerase pathway, as well as host glycans. […] Host mucin glycans are particularly low on the metabolic hierarchy and are typically targeted only after other dietary polysaccharides have been depleted (43). […] Thus, in some embodiments, levels of soluble carbohydrates in the colonic lumen may be perturbed by meropenem treatment, given that it is shown herein that meropenem depletes the abundance of commensal Clostridia, which function to metabolize dietary fibers and starches (45). Using acid hydrolysis followed by ion chromatography-mass spectrometry (IC-MS), levels of monosaccharide subunits comprising soluble luminal polysaccharides were characterized in the colon of mice.
Carbohydrates analysis by IC-MS. To determine the relative abundance of carbohydrates in mouse feces samples, extracts were prepared and analyzed by ultra-HRMS. Fecal pellets were homogenized with a […]® Tissue Homogenizer. Metabolites were extracted using 1 mL ice-cold 80/20 (v/v) methanol/water. Extracts were centrifuged at 17,000 g for 5 min at 4° C., and supernatants were transferred to clean tubes, followed by evaporation to dryness under nitrogen. Dried extracts were reconstituted in deionized water, and 5 μL was injected for analysis by IC-MS. […]

intestinal microbiota = assay: Fecal bacterial density by 16S rRNA gene qPCR in normal mice given meropenem in drinking water; format: in vivo; conditions: 0.625 g/L meropenem in drinking water
Method: To further explore a potential causal relationship between meropenem and intestinal GVHD, the effects of meropenem on GVHD in a mouse model of allo-HSCT were examined. A method of administering meropenem to mice was first developed that would better mimic the effects of meropenem on the intestinal microbiome of patients, which is typically given every 8 hours intravenously. Previously, antibiotics were administered subcutaneously to mice (25), and meropenem concentrations were quantified in the cecal lumen of mice 4, 8, 24, 48 and 96 hours after subcutaneous injection. […] Next, drinking water was evaluated as a means of continuously administering meropenem to mice, using bacterial density quantified by 16S ribosomal RNA (16S rRNA) gene quantitative PCR (qPCR) to gauge reductions of the intestinal microbiota.
Quantification of fecal bacterial density. Genomic DNA was isolated from stool as described above. qPCR was performed as previously described (66). In brief, 16S rRNA gene sequences were amplified from total fecal DNA using the primers 926F (5′-[…]-3′, where K is a G or a T; SEQ ID NO:2) and 1062R (5′-[…]-3′, where R is an A or a G; SEQ ID NO:3). […] To determined bacterial density, a plasmid with a 16S rRNA gene of a murine Blautia isolate was generated in the pCR4 backbone and used as a standard.

SMILES: C[C@@H](O)[C@H]1C(=O)N2C(C(=O)O)=C(S[C@@H]3CN[C@H](C(=O)N(C)C)C3)[C@H](C)[C@H]12 [meropenem]
- Acute GVHD Grade 0, number of patients [1]: 13
- Acute GVHD Grade 0, percentage of patients [1]: (41%)
- Acute GVHD Grade I, number of patients [1]: 5
- Acute GVHD Grade I, percentage of patients [1]: (16%)
- Acute GVHD Grade II, number of patients [1]: 10
- Acute GVHD Grade II, percentage of patients [1]: (31%)
- incidence of acute intestinal GVHD [1]: significantly higher
- Acute GVHD Grade III-IV, number of patients ([1]; iv): 4
- Acute GVHD Grade III-IV, percentage of patients ([1]; iv): (13%)
- concentrations of soluble luminal polysaccharide monosaccharide subunits [2]: significantly lower concentrations of arabinose- and xylose-derived polysaccharides
- reduction in fecal bacterial density (intestinal microbiota): substantial one-log reduction in fecal bacterial density
